Experimental data: patent publication US6777422B2, “Substituted tetrahydroisoquinolines as C5a receptor modulators” (Neurogen Corp., priority 2002, dated 2004)

Each compound was assayed against T1, human C5a receptor (Homo sapiens, UniProt P21730) (assay: C5a receptor mediated calcium mobilization assay (Example 20)). Settings: differentiated U937 cells, read-out: Ca2+ (Ki in the standard assay of C5a receptor mediated calcium mobilization).
T1 construct: endogenous in cells; host or cells: U937 cells differentiated with 1 mM dibutyryl cAMP
T1 sequence (P21730 1-350): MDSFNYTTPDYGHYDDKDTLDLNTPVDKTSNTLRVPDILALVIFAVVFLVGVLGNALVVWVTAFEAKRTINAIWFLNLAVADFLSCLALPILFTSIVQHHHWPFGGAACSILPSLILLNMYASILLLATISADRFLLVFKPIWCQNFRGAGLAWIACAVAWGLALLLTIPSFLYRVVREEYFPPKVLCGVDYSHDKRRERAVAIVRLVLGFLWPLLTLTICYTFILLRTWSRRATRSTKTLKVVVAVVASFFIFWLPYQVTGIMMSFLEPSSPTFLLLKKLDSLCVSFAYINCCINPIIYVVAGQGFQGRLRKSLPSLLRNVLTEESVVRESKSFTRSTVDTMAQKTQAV
Format: cell-based
Description: Calcium Mobilization Assays
U937 cells are grown in differentiation media (1 mM dibutyryl cAMP in RPMI 1640 medium containing 10% fetal bovine serum) for 48 hrs at 37° C. then reseeded onto 96-well plates suitable for use in a FLIPR™ Plate Reader (Molecular Devices Corp., Sunnyvale Calif.). Cells are grown an additional 24 hours (to 70-90% confluence) before the assay. The cells are then washed once with Krebs Ringer solution. FLUO-3 calcium sensitive dye (Molecular Probes, Inc. Eugene, Oreg.) is added to 10 μg/mL and incubated with the cells at room temperature for 1 to 2 hours. The 96 well plates are then washed to remove excess dye. Fluorescence responses, measured by excitation at 480 nm and emission at 530 nm, are monitored upon the addition of human C5a to the cells to a final concentration of 0.01-30.0 nM, using the FLIPR™ device (Molecular Devices).
C. Assays for the Identification of Receptor Modulatory Agents: Antagonists and Agonists
The calcium mobilization assay described above may be readily adapted for identifying test compounds that have agonist or antagonist activity at the human C5a receptor.
For example, in order to identify antagonist compounds, differentiated U937 cells are washed and incubated with Fluo-3 dye as described above. One hour prior to measuring the fluorescence signal, a subset of the cells is incubated with 1 μM of at least one compound to be tested. The fluorescence response upon the subsequent addition of 0.3 nM (final concentration) human recombinant C5a is monitored using the FLIPR™ plate reader. Antagonist compounds elicit at least a 2-fold decrease in the fluorescence response relative to that measured in the presence of human C5a alone. Preferred antagonist compounds elicit at least a 5-fold, preferably at least a 10-fold, and more preferably at least a 20-fold decrease in the fluorescence response relative to that measured in the presence of human C5a alone.

| Ki | SMILES |
| --- | --- |
| < 1000 nM | C[C@@H](C(=O)N(Cc1cccc(C(=O)N(C)C)c1)C1Cc2ccccc2C1)N1CCc2ccccc2[C@@H]1c1ccccc1Cl [Compound 105, 3-{[{(2S)-2-[(1R)-1-(2-chlorophenyl)-3,4-dihydroisoquinolin-2(1H)-yl]propanoyl}(indan-2-yl)amino]methyl}-N,N-dimethylbenzamide] |
| < 1000 nM | COc1cccc(CN(Cc2ccccc2F)C(=O)[C@H](C)N2CCc3ccccc3[C@@H]2c2cccc3ccccc23)n1 [Compound 125, (2S)-N-(2-fluorobenzyl)-N-[(6-methoxypyridin-2-yl)methyl]-2-[(1R)-1-(1-naphthyl)-3,4-dihydroisoquinolin-2(1H)-yl]propanamide] |
| < 1000 nM | Cc1ccccc1C1c2c(F)cccc2CCN1CC(=O)N(Cc1ccccc1F)C1Cc2ccccc2C1 (centres unmarked) [Compound 100, N-(indan-2-yl)-N-(2-fluorobenzyl)-2-[8-fluoro-1-(2-methylphenyl)-3,4-dihydroisoquinolin-2(1H)-yl]acetamide] |
| < 1000 nM | Cc1ccccc1C1c2ccccc2CCN1CC(=O)N(Cc1cc(O)ccc1F)C1Cc2ccccc2C1 (centres unmarked) [Compound 101, N-(indan-2-yl)-N-(2-fluoro-5-hydroxybenzyl)-2-[1-(2-methylphenyl)-3,4-dihydroisoquinolin-2(1H)-yl]acetamide] |
| < 1000 nM | Cc1cc(CN(C(=O)[C@H](C)N2CCc3ccccc3[C@@H]2c2c(Cl)cccc2Cl)C2Cc3ccccc3C2)cc(C)c1O [Compound 110, (2S)-2-[(1R)-1-(2,6-dichlorophenyl)-3,4-dihydroisoquinolin-2(1H)-yl]-N-(indan-2-yl)-N-(4-hydroxy-3,5-dimethylbenzyl) propanamide] |
| < 1000 nM | C[C@@H](C(=O)N(Cc1cccc(C#N)c1)C1Cc2ccccc2C1)N1CCc2ccccc2[C@@H]1c1ccccc1Cl [Compound 111, (2S)-2-[(1R)-1-(2-chlorophenyl)-3,4-dihydroisoquinolin-2(1H)-yl]-N-(3-cyanobenzyl)-N-(indan-2-yl)propanamide] |
| < 1000 nM | C[C@@H](C(=O)N(Cc1ccccc1F)C1Cc2ccccc2C1)N1CCc2ccccc2[C@@H]1c1c(Cl)cccc1Cl [Compound 102, (2S)-2-[(1R)-1-(2,6-dichlorophenyl)-3,4-dihydroisoquinolin-2(1H)-yl]-N-(indan-2-yl)-N-(2-fluorobenzyl)propanamide] |
| < 1000 nM | C[C@@H](C(=O)N(Cc1cccc([N+](=O)[O-])c1)C1Cc2ccccc2C1)N1CCc2ccccc2[C@@H]1c1ccccc1Cl [Compound 112, (2S)-2-[(1R)-1-(2-chlorophenyl)-3,4-dihydroisoquinolin-2(1H)-yl]-N-(indan-2-yl)-N-(3-nitrobenzyl)propanamide] |

The next lines start with the compound.

| SMILES | Ki |
| --- | --- |
| Cc1ccc(C)c([C@@H]2c3ccccc3CCN2CC(=O)N(Cc2ccccc2F)C2Cc3ccccc3C2)c1 (stereo in doubt) [Compound 49, N-(indan-2-yl)-2-[1-(2,5-dimethylphenyl)-3,4-dihydroisoquinolin-2(1H)-yl]-N-(2-fluorobenzyl)acetamide] | < 1000 nM |
| O=C(CN1CCc2ccccc2C1c1c(Cl)cccc1Cl)N(Cc1ccccc1F)C1Cc2ccccc2C1 (centres unmarked) [Compound 95, 2-[1-(2,6-dichlorophenyl)-3,4-dihydroisoquinolin-2(1H)-yl]-N-(indan-2-yl)-N-(2-fluorobenzyl)acetamide] | < 1000 nM |
| Cc1ccccc1[C@@H]1c2ccccc2[C@@H](C)CN1CC(=O)N(Cc1ccccc1F)C1Cc2ccccc2C1 (stereo in doubt) [Compound 46, N-(indan-2-yl)-N-(2-fluorobenzyl)-2-[(1R,4R)-4-methyl-1-(2-methylphenyl)-3,4-dihydroisoquinolin-2(1H)-yl]acetamide] | < 1000 nM |
| O=C(CN1CCc2ccccc2C1c1cccc2c1OCC2)N(Cc1ccccc1F)C1Cc2ccccc2C1 (centres unmarked) [Compound 53, 2-[1-(2,3-dihydro-1-benzofuran-7-yl)-3,4-dihydroisoquinolin-2(1H)-yl]-N-(indan-2-yl)-N-(2-fluorobenzyl)acetamide] | < 1000 nM |
| Cc1cccc(C2c3ccccc3CCN2CC(=O)N(Cc2ccccc2F)C2Cc3ccccc3C2)c1C (centres unmarked) [Compound 25, N-(indan-2-yl)-2-[1-(2,3-dimethylphenyl)-3,4-dihydroisoquinolin-2(1H)-yl]-N-(2-fluorobenzyl)acetamide] | < 1000 nM |
| C[C@@H](C(=O)N(Cc1ccccc1F)C1Cc2ccccc2C1)N1CCc2ccccc2[C@@H]1c1ccccc1F [Compound 60, (2S)-N-(indan-2-yl)-N-(2-fluorobenzyl)-2-[(1R)-1-(2-fluorophenyl)-3,4-dihydroisoquinolin-2(1H)-yl]propanamide] | < 1000 nM |
| O=C(CN1CCc2ccccc2C1c1c(F)cccc1F)N(Cc1ccccc1F)C1Cc2ccccc2C1 (centres unmarked) [Compound 81, 2-[1-(2,6-difluorophenyl)-3,4-dihydroisoquinolin-2(1H)-yl]-N-(indan-2-yl)-N-(2-fluorobenzyl)acetamide] | < 1000 nM |
| C[C@@H](C(=O)N(Cc1c[nH]cn1)C1Cc2ccccc2C1)N1CCc2ccccc2[C@@H]1c1ccccc1Cl [Compound 97, (2S)-2-[(1R)-1-(2-chlorophenyl)-3,4-dihydroisoquinolin-2(1H)-yl]-N-(indan-2-yl)-N-(1H-imidazol-4-ylmethyl)propanamide] | < 1000 nM |
| C[C@@H](C(=O)N(Cc1ccccc1F)C1Cc2ccccc2C1)N1CCc2ccccc2[C@@H]1c1ccccc1Br [Compound 70, (2S)-2-[(1R)-1-(2-bromophenyl)-3,4-dihydroisoquinolin-2(1H)-yl]-N-(indan-2-yl)-N-(2-fluorobenzyl)propanamide] | < 1000 nM |
| C[C@@H](C(=O)N(Cc1ccccc1F)Cc1ccccc1F)N1CCc2ccccc2[C@@H]1c1ccccc1Cl [Compound 87, (2S)-2-[(1R)-1-(2-chlorophenyl)-3,4-dihydroisoquinolin-2(1H)-yl]-N,N-bis(2-fluorobenzyl)propanamide] | < 1000 nM |
| Cc1ccccc1[C@@H]1c2ccccc2CCN1CC(=O)N(Cc1ccccc1F)C1Cc2ccccc2C1 [Compound 26, N-(indan-2-yl)-N-(2-fluorobenzyl)-2-[(1R)-1-(2-methylphenyl)-3,4-dihydroisoquinolin-2(1H)-yl]acetamide] | < 1000 nM |
| C[C@H]1CN(CC(=O)N(Cc2ccccc2F)C2Cc3ccccc3C2)[C@@H](c2ccccc2Cl)c2ccccc21 [Compound 59, 2-[(1R,4R)-1-(2-chlorophenyl)-4-methyl-3,4-dihydroisoquinolin-2(1H)-yl]-N-(indan-2-yl)-N-(2-fluorobenzyl)acetamide] | < 1000 nM |
| C[C@@H](C(=O)N(Cc1ccccc1F)C1Cc2ccccc2C1)N1CCc2ccccc2[C@@H]1c1c(F)cccc1F [Compound 89, (2S)-2-[(1R)-1(2,6-difluorophenyl)-3,4-dihydroisoquinolin-2(1H)-yl]-N-(indan-2-yl)-N-(2-fluorobenzyl)propanamide] | < 1000 nM |
| Cc1ccccc1C1c2ccccc2CCN1Cc1cnc(-c2ccccc2)n1C1Cc2ccccc2C1 (centres unmarked) [Compound 33, 2-{[1-(indan-2-yl)-2-phenyl-1H-imidazol-5-yl]methyl}-1-(2-methylphenyl)-1,2,3,4-tetrahydroisoquinoline] | < 1000 nM |
| O=C(CN1CCc2ccccc2C1c1cccc(F)c1F)N(Cc1ccccc1F)C1Cc2ccccc2C1 (centres unmarked) [Compound 74, 2-[1-(2,3-difluorophenyl)-3,4-dihydroisoquinolin-2(1H)-yl]-N-(indan-2-yl)-N-(2-fluorobenzyl)acetamide] | < 1000 nM |
| Cc1ccccc1[C@@H]1c2ccccc2CCN1[C@@H](C)C(=O)N(Cc1ccccc1F)C1Cc2ccccc2C1 [Compound 42, (2S)-N-(indan-2-yl)-N-(2-fluorobenzyl)-2-[(1R)-1-(2-methylphenyl)-3,4-dihydroisoquinolin-2(1H)-yl]propanamide] | < 1000 nM |

Same assay, conditions: differentiated U937 cells, unit inferred, read-out: Ca2+ (numeric value, C5a receptor mediated calcium mobilization)

| Ki | SMILES |
| --- | --- |
| 465 nM | CN(CC(=O)N(Cc1ccccc1F)C1Cc2ccccc2C1)C(c1ccccc1)c1ccccc1 [Compound 133, 2-(Benzhydryl-methyl-amino)-N-(2-fluoro-benzyl)-N-indan-2-yl-acetamide] |
| 13.1 nM | Cc1ccccc1[C@@H]1C2=C(CCCC2)CCN1CC(=O)N(Cc1ccccc1F)C1Cc2ccccc2C1 (stereo in doubt) [Compound 131, N-(2-Fluoro-benzyl)-N-indan-2-yl-2-(1-o-tolyl-3,4,5,6,7,8-hexahydro-1H-isoquinolin-2-yl)-acetamide] |
